Source: patent US11000033B2, “Ketone or oxime compound, and herbicide” (NISSAN CHEMICAL CORPORATION, priority 2014, dated 2021)

Columns and labels:
Assay type in all cases: in vivo
[1] = test system: Echinochloa oryzacola Vasing.; assay: Test Example 1: herbicidal activity, application before weed generation in submerged conditions (symbol A); settings: application herbicide amount 320 g/ha
Procedure, shortened: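 Compound emulsion was diluted to a set herbicide amount and applied to the water surface on the sowing day, into submerged (4 cm) alluvial-soil pots sown with mixed weed seeds and transplanted 2.5-leaf rice. Pots were held in a 25–30 °C greenhouse, and weeds were scored 0–5 by herbicidal ratio after 3 weeks.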

[2] = test system: transplanted rice plant; assay: Test Example 1: effect on crop, application before weed generation in submerged conditions (symbol a); settings: application herbicide amount 320 g/ha
Procedure, shortened: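 Alluvial soil pots flooded to 4 cm water, sown with Echinochloa oryzacola, Scirpus juncoides and Monochoria vaginalis, then transplanted with 2.5 leaf stage rice seedlings; pre-emergence application. Greenhouse 25° C. to 30° C.; scored 0–5 by herbicidal ratio 3 weeks after application.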

[3] = test system: Lolium multiflorum Lam.; assay: Test Example 4: herbicidal effect by soil treatment (symbol K)
Procedure, shortened: (§1)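 Seeds were sown in sterilized diluvial soil, covered with about 1.5 cm of soil, and the soil surface was sprayed with a water-diluted emulsion of the compound at a predetermined rate. Plants grew in a greenhouse at 25° C. to 30° C.; effects were scored visually 3 weeks after application.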

[4] = test system: Echinochloa crus-galli var. crus-galli; assay: Test Example 3: herbicidal effect by foliage application, Wagner pot (symbol H); settings: application herbicide amount 320 g/ha
Procedure, shortened: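 Weeds and rice were sown in alluvial soil under 0.1–0.5 cm of standing water and grown for 14 days in a 25–30 °C greenhouse. An emulsion of the compound, diluted in water to a set dose, was sprayed evenly onto the foliage. Effect was scored against fixed criteria 3 weeks after treatment.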

[5] = test system: Amaranthus retroflexus; assay: Test Example 4: herbicidal effect by soil treatment (symbol N)
Procedure, shortened: as §1

[6] = test system: wheat; assay: Test Example 4: effect on crop by soil treatment (symbol e); settings: for e: wheat, effect on crop grade: application herbicide amount 320 g/ha
Procedure, shortened: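 Grown at 25° C. to 30° C. in a greenhouse, the crops came from seed sown spot-wise in sterilized diluvial soil under roughly 1.5 cm of covering soil.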

[7] = test system: Stellaria media; assay: Test Example 4: herbicidal effect by soil treatment (symbol P)
Procedure, shortened: as §1

[8] = test system: Amaranthus retroflexus; assay: Test Example 5: herbicidal effect by foliage application, plastic box (symbol N); settings: 320 g/ha, 3 weeks after application
Procedure, shortened: (§2)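 Visual herbicidal score, taken three weeks post-application, of seedlings sprayed on the foliage with water-diluted emulsion at a predetermined amount; plants were 14 days old, greenhouse-raised at 25° C. to 30° C.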

[9] = test system: wheat; assay: Test Example 5: effect on crop by foliage application, plastic box (symbol e); settings: 320 g/ha, 3 weeks after application
Procedure, shortened: (§3)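 Seeds were sown in spots in sterilized diluvial soil held in a plastic box 21 cm × 13 cm × 7 cm deep, covered with about 1.5 cm of soil, and grown in a greenhouse at 25° C. to 30° C.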

[10] = test system: Abutilon theophrasti; assay: Test Example 5: herbicidal effect by foliage application, plastic box (symbol M); settings: 320 g/ha, 3 weeks after application
Procedure, shortened: as §2

[11] = test system: Setaria viridis; assay: Test Example 5: herbicidal effect by foliage application, plastic box (symbol G); settings: 320 g/ha, 3 weeks after application
Procedure, shortened: as §2

[12] = test system: Setaria viridis; assay: Test Example 4: herbicidal effect by soil treatment (symbol G)
Procedure, shortened: as §1

[13] = test system: Stellaria media; assay: Test Example 5: herbicidal effect by foliage application, plastic box (symbol P); settings: 320 g/ha, 3 weeks after application
Procedure, shortened: as §2

[14] = test system: beet; assay: Test Example 5: effect on crop by foliage application, plastic box (symbol f); settings: 320 g/ha, 3 weeks after application
Procedure, shortened: as §3

[15] = test system: Avena fatua; assay: Test Example 5: herbicidal effect by foliage application, plastic box (symbol I); settings: 320 g/ha, 3 weeks after application
Procedure, shortened: as §2

[16] = application herbicide amount 320 g/ha

| Compound | Herbicidal effect grade, A: Echinochloa oryzacola Vasing. [1] | Effect grade on crop, a: transplanted rice plant [2] | K: Lolium multiflorum Lam., herbicidal effect grade [3, 16] | herbicidal effect on H (Echinochloa crus-galli var. crus-galli), grade 0-5 [4] | N: Amaranthus retroflexus, herbicidal effect grade [5, 16] | e: wheat, effect on crop grade [6] | P: Stellaria media, herbicidal effect grade [7, 16] | N: Amaranthus retroflexus, herbicidal effect grade [8] | e: wheat, effect on crop grade [9] | M: Abutilon theophrasti, herbicidal effect grade [10] | G: Setaria viridis, herbicidal effect grade [11] | G: Setaria viridis, herbicidal effect grade [12, 16] | P: Stellaria media, herbicidal effect grade [13] | f: beet, effect on crop grade [14] | I: Avena fatua, herbicidal effect grade [15] | further results |
| --- | --- | --- | --- | --- | --- | --- | --- | --- | --- | --- | --- | --- | --- | --- | --- | --- |
| COCC(=O)CC1CC(O)=C(c2c(C)cc(C)cc2C)C1=O (stereo not drawn) [2-007] | 3 (Herbicidal ratio of 40% or higher and lower than 70%) | 4 (Herbicidal ratio of 70% or higher and lower than 90%) | 5 (Herbicidal ratio of 90% or more (almost completely withered)) | 5 (Herbicidal ratio of 90% or more (almost completely withered)) | 0 (Herbicidal ratio of 5% or lower (almost no effect)) | 0 (Herbicidal ratio of 5% or lower (almost no effect)) | 0 (Herbicidal ratio of 5% or lower (almost no effect)) | 0 (Herbicidal ratio of 5% or lower (almost no effect)) | 0 (Herbicidal ratio of 5% or lower (almost no effect)) | 0 (Herbicidal ratio of 5% or lower (almost no effect)) | 0 (Herbicidal ratio of 5% or lower (almost no effect)) | 4 (Herbicidal ratio of 70% or higher and lower than 90%) | 2 (Herbicidal ratio of 20% or higher and lower than 40%) | 0 (Herbicidal ratio of 5% or lower (almost no effect)) | 0 (Herbicidal ratio of 5% or lower (almost no effect)) |  |
| CON=C(C)CC1CC(O)=C(c2c(C)cc(C#CC3CC3)cc2C)C1=O (mixture of isomers) [6-010] | 5 (Herbicidal ratio of 90% or more (almost completely withered)) | 5 (Herbicidal ratio of 90% or more (almost completely withered)) | 5 (Herbicidal ratio of 90% or more (almost completely withered)) | 5 (Herbicidal ratio of 90% or more (almost completely withered)) | 1 (Herbicidal ratio of 5% or higher and lower than 20%) | 4 (Herbicidal ratio of 70% or higher and lower than 90%) | 0 (Herbicidal ratio of 5% or lower (almost no effect)) | 0 (Herbicidal ratio of 5% or lower (almost no effect)) | 4 (Herbicidal ratio of 70% or higher and lower than 90%) | 0 (Herbicidal ratio of 5% or lower (almost no effect)) | 5 (Herbicidal ratio of 90% or more (almost completely withered)) | 5 (Herbicidal ratio of 90% or more (almost completely withered)) | 0 (Herbicidal ratio of 5% or lower (almost no effect)) | 0 (Herbicidal ratio of 5% or lower (almost no effect)) | 3 (Herbicidal ratio of 40% or higher and lower than 70%) |  |
| COCCOC(=O)OC1=C(c2c(C)cc(C)cc2C)C(=O)C(CC(C)=NOC)C1 (stereo not drawn) [1-147] | 5 (Herbicidal ratio of 90% or more (almost completely withered)) | 5 (Herbicidal ratio of 90% or more (almost completely withered)) |  | 5 (Herbicidal ratio of 90% or more (almost completely withered)) |  |  |  |  |  |  |  |  |  |  |  | K: Lolium multiflorum Lam., herbicidal effect grade ([3]; 320 g/ha): 5 (Herbicidal ratio of 90% or more (almost completely withered)); N: Amaranthus retroflexus, herbicidal effect grade ([5]; 320 g/ha): 5 (Herbicidal ratio of 90% or more (almost completely withered)); e: wheat, effect grade on crop ([6]; 320 g/ha): 5 (Herbicidal ratio of 90% or more (almost completely withered)); P: Stellaria media, herbicidal effect grade ([7]; 320 g/ha): 2 (Herbicidal ratio of 20% or higher and lower than 40%); N: Amaranthus retroflexus, herbicidal effect (criteria 0-5) [8]: 1 (Herbicidal ratio of 5% or higher and lower than 20%); e: wheat, effect on crop (criteria 0-5) [9]: 5 (Herbicidal ratio of 90% or more (almost completely withered)); M: Abutilon theophrasti, herbicidal effect (criteria 0-5) [10]: 4 (Herbicidal ratio of 70% or higher and lower than 90%); G: Setaria viridis, herbicidal effect (criteria 0-5) [11]: 5 (Herbicidal ratio of 90% or more (almost completely withered)); G: Setaria viridis, herbicidal effect grade ([12]; 320 g/ha): 5 (Herbicidal ratio of 90% or more (almost completely withered)); P: Stellaria media, herbicidal effect (criteria 0-5) [13]: 3 (Herbicidal ratio of 40% or higher and lower than 70%); f: beet, effect on crop (criteria 0-5) [14]: 3 (Herbicidal ratio of 40% or higher and lower than 70%); I: Avena fatua, herbicidal effect (criteria 0-5) [15]: 5 (Herbicidal ratio of 90% or more (almost completely withered)) |
| CCOC(=O)C(C(=O)c1ccccc1)C1CC(O)=C(c2c(C)cc(C)cc2C)C1=O (stereo not drawn) [2-008] | 0 (Herbicidal ratio of 5% or lower (almost no effect)) | 0 (Herbicidal ratio of 5% or lower (almost no effect)) | 3 (Herbicidal ratio of 40% or higher and lower than 70%) | 0 (Herbicidal ratio of 5% or lower (almost no effect)) | 0 (Herbicidal ratio of 5% or lower (almost no effect)) | 0 (Herbicidal ratio of 5% or lower (almost no effect)) | 0 (Herbicidal ratio of 5% or lower (almost no effect)) | 1 (Herbicidal ratio of 5% or higher and lower than 20%) | 0 (Herbicidal ratio of 5% or lower (almost no effect)) | 0 (Herbicidal ratio of 5% or lower (almost no effect)) | 3 (Herbicidal ratio of 40% or higher and lower than 70%) | 0 (Herbicidal ratio of 5% or lower (almost no effect)) | 0 (Herbicidal ratio of 5% or lower (almost no effect)) | 0 (Herbicidal ratio of 5% or lower (almost no effect)) | 0 (Herbicidal ratio of 5% or lower (almost no effect)) |  |
| CCCC(=O)CC1CC(O)=C(c2c(C)cc(C)cc2C)C1=O (stereo not drawn) [2-021] | 4 (Herbicidal ratio of 70% or higher and lower than 90%) | 5 (Herbicidal ratio of 90% or more (almost completely withered)) | 5 (Herbicidal ratio of 90% or more (almost completely withered)) | 5 (Herbicidal ratio of 90% or more (almost completely withered)) | 2 (Herbicidal ratio of 20% or higher and lower than 40%) | 0 (Herbicidal ratio of 5% or lower (almost no effect)) | 0 (Herbicidal ratio of 5% or lower (almost no effect)) | 0 (Herbicidal ratio of 5% or lower (almost no effect)) | 0 (Herbicidal ratio of 5% or lower (almost no effect)) | 0 (Herbicidal ratio of 5% or lower (almost no effect)) | 4 (Herbicidal ratio of 70% or higher and lower than 90%) | 5 (Herbicidal ratio of 90% or more (almost completely withered)) | 0 (Herbicidal ratio of 5% or lower (almost no effect)) | 0 (Herbicidal ratio of 5% or lower (almost no effect)) | 3 (Herbicidal ratio of 40% or higher and lower than 70%) |  |
